Data reported in US9012481B2, “Benzoarylureido compounds, and composition for prevention or treatment of neurodegenerative brain disease containing the same” (Korea Institute of Science and Technology, priority 2009, dated 2015).
Read-outs that look alike come from different tables or passages of the source.

How the values were obtained:
BV-2 cells = assay: Cell viability (MTT analysis) of beta-amyloid treated BV-2 cells; type: cell-based; settings: Mus musculus, BV-2 cells, average of three experiments; for viability at 0.1 µM: compound 100 nM for 24 hours after 50 μM beta-amyloid for 2 hours; for viability at 1 µM: compound 1000 nM for 24 hours after 50 μM beta-amyloid for 2 hours; for viability at 0.5 µM: BV-2, read-out: cell viability by MTT analysis, compound 500 nM for 24 hours after 50 μM beta-amyloid for 2 hours
Method: Beta-amyloid (Aβ25-35, Sigma Chemical Co., St. Louis, Mo., USA) was diluted with aseptic desalted water and preservative solution (1 mM, GIBCO), and kept in aliquots at −70° C. To the treatment of beta-amyloid, beta-amyloid preservative solution was diluted to desired concentrations in a treatment medium (DMEM, GIBCO). The reagents were newly provided as a preservative solution (10 mM) under DMSO (dimethylsulfoxide), and diluted in treatment medium to desired concentrations.
BV-2 microglia cells (allotted from Pharmacology Division of Ajou University) were cultivated in DMEM (Dulbecco's Modified Eagle's Medium) supplemented with 5% fetal bovine serum (Invitrogen, Carlsbad, Calif., USA), sou/Ml penicillin (Invitrogen, Carlsbad, Calif., USA), and 50 μg/Ml streptomycin (Invitrogen, Carlsbad, Calif., USA) under the atmosphere condition with 5% CO2 and 95% air at 37° C. The medium was replaced once a day, the cells were plate-cultured in a density according to the scale of each experiment.
BV-2 cells were plate-cultured in 96-well plate at the density of 5×10^4, the cell viability was measured according to a conventional MTT analysis method and lactate dehydrogenase (LDH) analysis method. The MTT analysis depends on the metabolism ability of mitochondria of living cell, and reflexes intracellular redox states. The cultured cells were treated with MTT a solution (final concentration: 1 mg/Ml) for 4 hours. Deep blue formazan crystal generated in the original cells was dissolved in a lysis buffer, and then, the absorbance was detected at 595 nm with microplate reader. The LDH activity released from the culture medium was detected, which was evaluated as a cell death index. The culture medium was added to a reagent (test, Sigma Chemical Co, St. Louis, Mo., USA) containing sodium lactate, NADH and sodium pyruvate, and then, the absorbance reduction by NADH at 340 nm was measured. The result was calculated assuming that the LDH activity in homogenate solution of the non-treated control is 100%.
[…] For microscope analysis, BV-2 cells were used in 6-well plate at the density of 5×10^5 cells/well, for MTT analysis, BV-2 cells were used in 96-well plate at the density of 5×10^4 cells/well.
The obtained prevention effects of KHG25967 compound on toxicity induced by beta-amyloid in BV-2 cells were FIGS. 1A and 1b.
For MTT analysis, BV-2 cells were used on 96-well plate in the density of 5×10^4 cells/well. The quantitative analysis results (unit: %) for the cell viability obtained by MTT analysis were shown in Table 2, wherein the values are represented by the average of three experiments per each concentration.

[1] = compound 50 μM for 24 hours after 50 μM beta-amyloid for 2 hours, read-out: cell viability by MTT analysis

melting point	SMILES	viability at 50 µM (BV-2 cells; [1])	further results
257 °C	Cc1ccc(CNC(=O)Nc2nc3ccccc3s2)cc1 [KHG25948, 1-(benzo[d]thiazole-2-yl)-3-(4-methylbenzyl)urea]	30%	
294 °C	CCCCOC(=O)CNC(=O)Nc1nc2ccccc2s1 [KHG25954, butyl 2-(3-benzo[d]thiazole-2-ylureido)acetate]	48%	
291 °C	CCOC(=O)CNC(=O)Nc1nc2ccc(F)cc2s1 [KHG25956, ethyl 2-(3-(6-fluorobenzo[d]thiazole-2-yl)ureido)acetate]	36%	
	CCOC(=O)CNC(=O)Nc1nc2ccc(Cl)cc2o1 [KHG25989, ethyl 2-(3-(6-chlorobenzo[d]oxazole-2-yl)ureido)acetate]	55%	
	Cc1ccc(CNC(=O)Nc2nc3ccc(Cl)cc3o2)cc1 [KHG25990]	37%	
278 °C	CCOC(=O)CCCNC(=O)Nc1nc2ccccc2s1 [KHG26004, ethyl 4-(3-benzo[d]thiazole-2-ylureido)butanoate]	37%	
256 °C	CCOC(=O)CCNC(=O)Nc1nc2ccccc2s1 [KHG26005, ethyl 3-(3-benzo[d]thiazole-2-ylureido)propanoate]	40%	
281.9 °C	CCOC(=O)CNC(=O)Nc1nc2ccc(OC)cc2s1 [KHG26019, ethyl 2-(3-(6-methoxybenzo[d]thiazole-2-yl)ureido)acetate]	47%	
264 °C	CCOC(=O)CCNC(=O)Nc1nc2ccccc2[nH]1 [KHG26027, ethyl 3-(3-1H-benzo[d]imidazole-2-ylureido)propanoate]	45%	
277 °C	CCOC(=O)CCCNC(=O)Nc1nc2ccccc2[nH]1 [KHG26028, ethyl 4-(3-1H-benzo[d]imidazole-2-ylureido)butanoate]	34%	
157 °C	CCOC(=O)CNC(=O)Nc1nc2ccccc2n1C [KHG26029, ethyl 2-(3-(1-methyl-1H-benzo[d]imidazole-2-yl)ureido)acetate]	70%	viability at 0.1 µM (BV-2 cells): 86%; viability at 1 µM (BV-2 cells): 73%
105 °C	CCOC(=O)CCNC(=O)Nc1nc2ccccc2n1C [KHG26030, ethyl 3-(3-(1-methyl-1H-benzo[d]imidazole-2-yl)ureido)propanoate]	75%	viability at 0.1 µM (BV-2 cells): 60%; viability at 1 µM (BV-2 cells): 76%
81 °C	CCOC(=O)CCCNC(=O)Nc1nc2ccccc2n1C [KHG26031, ethyl 4-(3-(1-methyl-1H-benzo[d]imidazole-2-yl)ureido)butanoate]	56%	
	O=C(O)CNC(=O)Nc1nc2ccccc2s1 [KHG26096, potassium 2-(3-benzo[d]thiazole-2-ylureido)acetate]		viability at 0.5 µM (BV-2 cells): 72%
	COc1ccc2nc(NC(=O)NCC(=O)O)sc2c1 [KHG26175, potassium 2-(3-(6-methoxybenzo[d]thiazole-2-yl)ureido)acetate]		viability at 0.5 µM (BV-2 cells): 76%
	Cn1c(NC(=O)NCCC(=O)O)nc2ccccc21 [KHG26222, potassium 3-(3-(1-methyl-1H-benzo[d]imidazole-2-yl)ureido)propanoate]		viability at 0.5 µM (BV-2 cells): 33%
	CCNC(=O)Nc1nc2ccccc2s1 [KHG26332, 1-(benzo[d]thiazole-2-yl)-3-ethylurea]		viability at 50 µM (BV-2 cells; BV-2, read-out: cell viability by MTT analysis, compound 50 μM for 24 hours after 50 μM beta-amyloid for 2 hours): 18%
264 °C	CCOC(=O)CNC(=O)Nc1nc2ccc(OCC)cc2s1 [KHG26347, ethyl 2-(3-(6-ethoxybenzo[d]thiazole-2-yl)ureido)acetate]		
197 °C	CCOc1ccc2nc(NC(=O)NCC(=O)O)sc2c1 [KHG26348, 2-(3-(6-ethoxybenzo[d]thiazole-2-yl)ureido)acetic acid]		
295 °C	CCOC(=O)CNC(=O)Nc1nc2ccc(Cl)cc2s1 [KHG26349, ethyl 2-(3-(6-chlorobenzo[d]thiazole-2-yl)ureido)acetate]		
213 °C	CCOC(=O)CNC(=O)Nc1nc2c(Cl)cccc2s1 [KHG26351, ethyl 2-(3-(4-chlorobenzo[d]thiazole-2-yl)ureido)acetate]		
268 °C	CCOC(=O)CNC(=O)Nc1nc2cc(C)c(C)cc2s1 [KHG26353, ethyl 2-(3-(5,6-dimethylbenzo[d]thiazole-2-yl)ureido)acetate]		
197 °C	Cn1c(NC(=O)NCCCC(=O)O)nc2ccccc21 [KHG26358, 4-(3-(1-methyl-1H-benzo[d]imidazole-2-yl)ureido)butanoic acid]		

SMILES	melting point	viability at 50 µM (BV-2 cells; [1])	further results
O=C(O)CCCNC(=O)Nc1nc2ccccc2s1 [KHG26025, 4-(3-benzo[d]thiazole-2-ylureido)butanoic acid]	210 °C	90%	viability at 0.1 µM (BV-2 cells): 73%; viability at 1 µM (BV-2 cells): 89%
O=C(O)CCNC(=O)Nc1nc2ccccc2s1 [KHG26026, 3-(3-benzo[d]thiazole-2-ylureido)propanic acid]	243 °C	82%	viability at 0.1 µM (BV-2 cells): 66%; viability at 1 µM (BV-2 cells): 85%
Cn1c(NC(=O)NCC(=O)[O-])nc2ccccc21.[K+] [KHG26172, potassium 2-(3-(1-methyl-1H-benzo[d]imidazole-2-yl)ureido)acetate]	229 °C		viability at 0.5 µM (BV-2 cells): 68%
O=C([O-])CNC(=O)Nc1nc2ccc(Cl)cc2s1.[K+] [KHG26177, potassium 2-(3-(6-chlorobenzo[d]thiazole-2-yl)ureido)acetate]	237 °C		viability at 0.5 µM (BV-2 cells): 62%
O=C([O-])CNC(=O)Nc1nc2c(Cl)cccc2s1.[K+] [KHG26178, potassium 2-(3-(4-chlorobenzo[d]thiazole-2-yl)ureido)acetate]	259 °C		viability at 0.5 µM (BV-2 cells): 59%
Cc1cc2nc(NC(=O)NCC(=O)[O-])sc2cc1C.[K+] [KHG26180, potassium 2-(3-(5,6-dimethylbenzo[d]thiazole-2-yl)ureido)acetate]	278 °C		viability at 0.5 µM (BV-2 cells): 62%
COc1ccc2nc(NC(=O)NCC(=O)O)sc2c1 [KHG26346, 2-(3-(6-methoxybenzo[d]thiazole-2-yl)ureido)acetic acid]	198.3 °C		
O=C(O)CNC(=O)Nc1nc2ccc(Cl)cc2s1 [KHG26350, 2-(3-(6-chlorobenzo[d]thiazole-2-yl)ureido)acetic acid]	216 °C		
O=C(O)CNC(=O)Nc1nc2c(Cl)cccc2s1 [KHG26352, 2-(3-(4-chlorobenzo[d]thiazole-2-yl)ureido)acetic acid]	198 °C		
Cc1cc2nc(NC(=O)NCC(=O)O)sc2cc1C [KHG26354, 2-(3-(5,6-dimethylbenzo[d]thiazole-2-yl)ureido)acetic acid]	198 °C		
Cc1ccc2nc(NC(=O)NCC(=O)O)sc2c1 [KHG26355, 2-(3-(6-methylbenzo[d]thiazole-2-yl)ureido)acetic acid]	201 °C		
Cc1cccc2sc(NC(=O)NCC(=O)O)nc12 [KHG26356, 2-(3-(4-methylbenzo[d]thiazole-2-yl)ureido)acetic acid]	203 °C		
Cn1c(NC(=O)NCCC(=O)O)nc2ccccc21 [KHG26357, 3-(3-(1-methyl-1H-benzo[d]imidazole-2-yl)ureido)propane acid]	237 °C		
